Source: patent US20230181905A1, “Systems, Devices, and Methods for Enhancing the Neuroprotective Effects of Non-Invasive Gamma Stimulation with Pharmacological Agents” (Massachusetts Institute of Technology, priority 2021, published 2023)

Legend:
Format in all cases: in vivo, mouse
[1] = test system: gene expression in microglia, oligodendrocytes, neurons and astrocytes; assay: Single-cell and single-nucleus RNA sequencing of brain tissue; details: 5×FAD mice
Description: Gene expression changes in microglia are strongly associated with AD pathogenesis. Thus, the effect of these treatments on gene expression using single-cell RNA sequencing was investigates (10× Genomics, #Chromium Next GEM Single Cell 3′ Kit v3.1, 16 rxns PN-1000268). […] The gene expression changes between treatment conditions in the microglia cluster were examined. […] Further, due to the depth of the gene expression analysis sub-clustering of microglia was performed.
As neurons were not represented from the single-cell RNA-sequencing (FIGS. 8A-12), to study the effect of these treatments on gene expression in neurons, single nucleus RNA-sequencing was performed (10× Genomics, #Chromium Next GEM Kit v3.1, 16 rxns PN-1000268). […] The gene expression changes between treatment conditions in the interneurons cluster were examined.
Mice were killed and the brain tissue was freshly dissected out and the single cell suspension or nuclei was prepared. Single cell RNA libraries were prepared using the Chromium Next GEM Single Cell 3′ Kit v3.1 according to the manufacturer's protocol (10× Genomics). The generated scRNA-seq libraries were sequenced using NovaSeq. Gene counts were obtained by aligning reads to the mouse genome. […]
RNA sequencing: The animals and brain tissues were prepared, and then the single nuclei from the brain tissue was then obtained. […] The RNA-seq data was analyzed in R package. […]

perineuronal nets (WFA) = assay: WFA staining of perineuronal nets; details: 5×FAD mice
Excerpt: Perineuronal nets (PNN) of neurons are necessary for neuronal integrity and circuit plasticity. Loss of PNN is shown to occur in AD. […] Therefore, the effect of the treatment on PNN was examined.
Antibodies: IBA1 (Synaptic Systems, Cat #234 004, dilution-1:500; Wako Chemicals, Cat #019-19741, dilution-1:500), GFAP (Thermo Fisher Scientific, Cat #130300, dilution-1:500), MEF2C (Cell Signaling Technology, Cat #5030T), MAC2 (Cedarlane Labs, Cat #CL8942AP, dilution-1:500), vGAT (Synaptic Systems, Cat #131 013, dilution-1:500), vGLUT (Synaptic Systems, Cat #1135 302, dilution-1:500), NeuN (Synaptic Systems, Cat #266 004, dilution-1:1000), MHC2 (EMD Millipore, Cat #MABF33, dilution-1:500), C1q (Abcam, Cat #ab182451, dilution-1:500), synaptophysin (Sigma, Cat #S5768). The following combination of secondary antibodies were used: (1) Alexa Fluor 488, 594 and 647, (2) Alexa Fluor 555 and 647, (3) Alexa Fluor 594 and 647, or (4) Alexa Fluor 488 and 647. All secondary antibodies were obtained from Invitrogen. Biotinylated Wisteria Floribunda Lectin (Vector Laboratories, Cat #B-1355, dilution-1:500) followed by streptavidin conjugated Alexa Fluor 594 (Thermo Fisher Scientific, Cat #S32356, dilution-1:1000) was used to examine WFA.

D54D2 positive amyloid = assay: D54D2 amyloid immunohistochemistry in 5×FAD mice
Excerpt: It was next sought to understand whether Plx3397 administration-dependent electrophysiological alterations were attributed to changes in amyloid plaque levels. […] In the cuprizone model of demyelination, Plx33977 administration preserved myelin. It was thus considered whether electrophysiological alterations are associated with myelin levels in Plx3397 treated 5×FAD mice.

[2] = hippocampus, chronic Plx3397 vs control

## FC(F)(F)c1ccc(CNc2ccc(Cc3c[nH]c4ncc(Cl)cc34)cn2)cn1 [Plx3397, Pexidartinib]
[1]; single-cell RNA sequencing, microglia cluster
  genes related to Tyrobp-trem2-Apoe pathway in microglia: upregulated
[1]; visual cortex, snRNA-seq
  abnormal synaptic transmission genes in E-neurons: upregulated
Perineuronal nets (WFA)
  WFA content within the microglia compared to control mice: higher
Perineuronal nets (WFA); [2]
  WFA signals: increased
Perineuronal nets (WFA); visual cortex
  PNN coverage: increased
  WFA overall signal intensity: increased
  WFA signals: 130.4±7.178 % of no treatment control
Perineuronal nets (WFA); visual cortex, Plx3397 50 days
  WFA+ PNN signals: 289400000±9384029 au
D54D2 positive amyloid; [2]
  amyloid: did not affect
D54D2 positive amyloid; visual cortex, chronic Plx3397, not affected vs control
  amyloid levels (D54D2 positive amyloid signal): 9894±1181 au
